Activity calls are given as the source filed them. No cut-off for these calls is given here.
Assays:
[1] = biological target: T1, Probable nicotinate-nucleotide adenylyltransferase (Bacillus anthracis) (UniProt C3L5T6); experiment: Inhibition of Bacillus anthracis nicotinate-nucleotide adenosyltransferase up to 100 uM preincubated for 5 mins before addition of substrate by malachite green reagent method
T1 sequence (whole entry): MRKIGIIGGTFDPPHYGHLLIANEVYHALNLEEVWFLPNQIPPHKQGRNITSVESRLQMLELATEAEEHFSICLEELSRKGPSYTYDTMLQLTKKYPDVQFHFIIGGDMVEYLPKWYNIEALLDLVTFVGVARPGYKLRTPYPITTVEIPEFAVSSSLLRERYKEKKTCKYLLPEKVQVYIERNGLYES

[2] = biological target: T2, Probable nicotinate-nucleotide adenylyltransferase (Bacillus anthracis, UniProt C3L5T6)
T2 sequence (C3L5T6 whole entry): T1 sequence (whole entry)

Row | Compound | inhibition [1] | IC50 [2] [µM]
1 | O=C(O)CN(/N=C/c1ccc(/C=N/N(CC(=O)O)C(=O)CCC(=O)Nc2ccccc2Cl)cc1)C(=O)CCC(=O)Nc1ccccc1Cl | inactive | 
2 | CC(/C=N/NC(=O)CCC(=O)Nc1ccc(Br)cc1)c1ccc2ccccc2c1 (stereo not drawn) |  | > 200
3 | O=C(O)CN(/N=C/c1cccc2ccccc12)C(=O)CCC(=O)Nc1ccccc1Cl |  | > 200

Source: ChEMBL document CHEMBL1155451, “Complexes of bacterial nicotinate mononucleotide adenylyltransferase with inhibitors: implication for structure-based drug design and improvement” (J Med Chem, 2010)
